Measurements from patent publication US9902986B2, “Enterobactin conjugates and uses thereof” (Massachusetts Institute of Technology, priority 2013, dated 2018).
“Also recorded” adds a separate entry of the source.

Key:
[1] = test system: human colon epithelial T84 cells; assay: Cytotoxicity study using MTT; settings: 24 h, concentrations up to 10 μM
Protocol: Colon epithelial T84 cell line (purchase from ATCC) were grown in DMEM/F12 medium containing penicillin (100 I.U./mL) and streptomycin (100 μg/mL). The cells were passed and plated in 96-well flat-bottom plates ˜16 h before treatment. Each well contained 90 µL of the cell culture at a density of 10^5 cells/mL. Stock solutions of the tested conjugates (e.g., Ent-Amp) were prepared in sterile filtered 10% DMSO/water, and 10 μL of the each solution was added to each well. The plate was incubated at 37° C. and under 5% CO2 for 24 h and 20 μL of MTT (5 mg/mL in sterile PBS) was added to each well. The plate was incubated at 37° C. for another 4 h, and the supernatant was removed from each well. DMSO (100 μL) was added to the wells to afford a purple solution, and the absorbance at 550 nm was recorded by using a plate reader. Blank readings were generated by wells that only contain the growth medium but no cells. The assay was repeated in three independent trials, and the resulting mean and standard errors are reported. […] Ent-Amp, Ent, and Amp were incubated with human colon epithelial T84 cells for 24 h.
In another exemplary experiment, the human colon epithelial T84 cell line was purchased from ATCC and cultured in 1:1 DMEM/F12 medium with 10% fetal bovine serum, 1% penicillin, and streptomycin (v/v, ATCC). The cells were grown to approximately 95% confluency and treated with 3 mL of trypsin-EDTA (Corning). A 12-mL portion of fresh medium was added to the detached cells, and the T84 cell suspension was centrifuged (600 rpm×5 min, 37° C.). The supernatant was discarded, and the cell pellet was resuspended in 6 mL of the fresh culture media. The concentration of cells was quantified by using a manual hemocytometer (VWR International) and adjusted to 1×10^5 cells/mL. A 90-μL aliquot of T84 cells were then added to 96-well plates and incubated at 37° C. and 5% CO2 for 24 h. […] DMSO (100 μL) was added to each well and the absorbance at 550 nm was recorded by using a plate reader. Blank readings were recorded on wells that only contained the medium. […]

various E. coli strains = assay: Antibacterial activity against a panel of E. coli strains; format: cell-based, Escherichia coli; settings: 6 strains of E. coli (K-12, B, H9049, 25922, UTI89, CFT073)
Protocol: (§1) Overnight cultures of the bacterial strains were prepared by inoculating 5 mL of LB with the bacterial freezer stocks and the cultures were incubated at 37° C. in a tabletop incubator shaker set at 150 rpm. The overnight culture grew to saturation and was diluted 1:100 into 5 mL of fresh LB medium containing DP (200 μM) and incubated at 37° C. with shaking at 150 rpm until OD600 reached 0.6. The cultures were subsequently diluted to an OD600 value of 0.001 in 50% MHB medium (11.5 g/L) with or without DP (200 μM). No antibiotic marker was included in these cultures. A 90-μL aliquot of the diluted culture was combined with a 10-μL aliquot of a 10× solution of the tested compounds in a 96-well plate, which was wrapped in […] and incubated at 30° C. with shaking at 150 rpm for 19 h. Bacterial growth was determined by measuring OD600 using a BIOTEK SYNERGY HT plate reader. Each well condition was prepared in duplicate, and at least three independent replicates were conducted on different days. The resulting mean OD600 are reported and the error bars are the standard deviation.
Ampicillin and amoxicillin are β-lactam antibiotics that have periplasmic targets in Gram-negative bacteria and inhibit cell wall biosynthesis. The antibacterial activity of Ent-ampicillin and Ent-amoxicillin conjugates 44 and 45 was evaluated in vitro against a panel of Gram-negative and positive-bacteria.
Select Ent-β-lactam conjugates (Ent-Amp and Ent-Amx) and their glucosylated derivatives (MGE-Amp, MGE-Amx, DGE-Amp, and DGE-Amx) were tested against 6 strains of E. coli. Four of them are non-pathogenic strains, namely K-12, B, H9049, and 25922, and the other two are uropathogenic clinical isolates, namely UTI89 and CFT073.

E. coli UTI89 = assay: Competition assay with native siderophores, E. coli UTI89; format: cell-based, Escherichia coli; settings: conjugate 100 nM, varied Ent, MGE or DGE, 50% MHB, 200 μM DP, 30° C., t=19 h
Protocol: Ent was synthesized following a literature procedure^55 and stored as DMSO stock solution at −20° C. MGE and DGE were prepared from Ent using MceC and IroB as described for MGE-PEG3-N3 and DGE-PEG3-N3.
(§2) In an exemplary experiment, select conjugates (Ent-Amp, MGE-Amp, and DGE-Amp) with select native siderophores (Ent, MGE, and DGE) were tested against the uropathogenic strain E. coli UTI89 in 50% MHB, t=19 h, 30° C. […] The concentration of the conjugates was fixed at 100 nM, and the concentration of the native siderophores was varied. […] These observations indicate that Ent, MGE, Ent-Amp, and MGE-Amp may enter via both FepA and IroN with different efficiency, but DGE and DGE-Amp may only enter via IroN.
as §2, with “In another” for “In an”, “100 nM” for “100 nM,”

E. coli CFT073 [2] = assay: Competition assay with native siderophores, E. coli CFT073; format: cell-based, Escherichia coli; settings: conjugate 100 nM, varied Ent, MGE or DGE, 50% MHB, 200 μM DP, 30° C., t=19 h
Protocol: These assays were performed following the general procedure described herein except that varying concentrations of Ent, MGE, or DGE, each of which was unmodified, were mixed with Ent-Amp, Ent-Amx, MGE-Amp, MGE-Amx, DGE-Amp, or DGE-Amx. Ent was synthesized following a literature procedure^55 and stored as DMSO stock solution at −20° C. MGE and DGE were prepared from Ent using MceC and IroB as described for MGE-PEG3-N3 and DGE-PEG3-N3.
(§3) In another exemplary experiment, select conjugates (Ent-Amp, MGE-Amp, and DGE-Amp) with select native siderophores (Ent, MGE, and DGE) were tested against the uropathogenic strain E. coli CFT073 in 50% MHB, t=19 h, 30° C. 2,2′-dipyridyl (DP, 200 μM) was added to provide conditions of iron limitation. The concentration of the conjugates was fixed at 100 nM and the concentration of the native siderophores was varied.
as §3, with “(Ent-Amx, MGE-Amx,” for “(Ent-Amp, MGE-Amp,”, “DGE-Amx)” for “DGE-Amp)”, “DP (200” for “2,2′-dipyridyl (DP, 200”

E. coli K-12 = assay: Antimicrobial activity assay, E. coli K-12; format: cell-based, Escherichia coli; settings: inhibition attributed to iron deprivation
Protocol: as §1
In an exemplary experiment, antibacterial activities of the conjugates were tested against E. coli K-12 in 50% MHB at 30° C., t=19 h. 2,2′-dipyridyl (DP, 200 μM) was added to provide conditions of iron limitation.

E. coli CFT073 [3] = assay: Antimicrobial activity assay in the presence of lipocalin 2; format: cell-based, Escherichia coli; settings: conjugate 100 nM, lcn2 1 μM, M9 minimal media, 37° C., 24 h
Protocol: The bacterial cultures were grown in modified M9 minimal medium (Blango, M. G.; Ott, E. M.; Erman, A.; Veranic, P.; Mulvey, M. A. Forced Resurgence and Targeting of Intracellular Uropathogenic Escherichia coli Reservoirs. PLoS One 2014, 9, e93327-e93335) (Na2HPO4 6.8 g/L, KH2PO4 3 g/L, NaCl 0.5 g/L, NH4Cl 1 g/L, 0.4% glucose, 2 mM MgSO4, 0.1 mM CaCl2, 0.2% casein amino acids, and 16.5 μg/mL of thiamine) overnight. […] The cultures were serially diluted to an OD600 value of 0.00001 in fresh modified M9 minimal medium. Lipocalin 2 (Lcn2) was diluted into PBS buffer to a concentration of 20 μM upon arrival and frozen at −20° C. until use. Bovine serum albumin (BSA, Sigma-Aldrich) was prepared in PBS buffer to achieve a concentration of 20 μM. […] The bacterial growth was determined by measuring OD600 using the plate reader. […] The resulting mean OD600 was reported, and the error bars were the standard deviation. […] In contrast, Lcn2 had no effect of the antibacterial activity of MGE-Amp, MGE-Amx, DGE-Amp, or DGE-Amx.

[4] = test system: Salmonella enterica serovar Typhimurium (STM) IR715; assay: Antibacterial activity assay, Salmonella Typhimurium; format: cell-based; settings: 50% MHB, 100 μM 2,2′-dipyridyl, 30° C., t=19 h
Protocol: FIGS. 12A and 12B show exemplary antibacterial activities of Ent-Amp, Ent-Amx, MGE-Amp, MGE-Amx, DGE-Amp, and DGE-Amx against Salmonella enterica serovar Typhimurium (STM) IR715 (50% MHB with 100 μM 2,2′-dipyridyl to provide conditions of iron limitation, 30° C., t=19 h). (FIG. 12A) Antibacterial activity of Amp and the Amp-containing conjugates (Ent-Amp, MGE-Amp, and DGE-Amp). […] (FIG. 12B) Antibacterial activity of Amx and the Amx-containing conjugates (Ent-Amx, MGE-Amx, and DGE-Amx).

[5] = test system: uropathogenic E. coli and non-pathogenic E. coli; assay: Mixed culture assays (summary), uropathogenic and non-pathogenic E. coli; format: cell-based, Escherichia coli; settings: uropathogenic with non-pathogenic E. coli
From the text: No antibiotic marker was included in these cultures.

E. coli CFT073 [6] = assay: Antimicrobial activity assay, E. coli CFT073; format: cell-based, Escherichia coli; settings: Fe(III)-loaded versus apo conjugates, 50% MHB, 200 μM DP, 30° C., t=19 h
Protocol: as §1
In another exemplary experiment, antibacterial activities of the conjugates were tested against E. coli CFT073 in 50% MHB at 30° C., t=19 h. DP (200 μM) was added to provide conditions of iron limitation.
In another exemplary experiment, antibacterial activities of Fe(III)-loaded or apo Ent-β-lactam conjugates (Ent-Amp and Ent-Amx) and their glucosylated derivatives (MGE-Amp, MGE-Amx, DGE-Amp, and DGE-Amx) against the uropathogenic strain E. coli CFT073 were tested in 50% MHB, 30° C., t=19 h. 2,2′-dipyridyl (DP, 200 μM) was added to provide conditions of iron limitation.

SMILES	effect on viability of T84 cells (MTT) [1]	antibacterial activity against uropathogenic compared to non-pathogenic E. coli (various E. coli strains)	attenuation of antibacterial activity by native siderophores (E. coli UTI89)	attenuation of antibacterial activity by native siderophores (E. coli CFT073 [2])	concentrations at which E. coli K-12 was inhibited (E. coli K-12)	effect of lipocalin-2 (lcn2) on antibacterial activity (E. coli CFT073 [3])	antibacterial activity relative to the unmodified antibiotic [4]	strain-specific growth inhibition in the mixed culture assays [5]	effect of preloading Fe(III) on antibacterial activity (E. coli CFT073 [6])
O=C(N[C@H]1COC(=O)[C@@H](NC(=O)c2cccc([O-])c2[O-])COC(=O)[C@@H](NC(=O)c2cccc([O-])c2[O-])COC1=O)c1cccc([O-])c1[O-].[Fe+3] [Ent with pre-loaded Fe]	did not exhibit this effect								
CC1(C)SC2C(NC(=O)C(NC(=O)CCCc3cn(CCOCCOCCOCCNC(=O)c4cc(O)c(O)c(C(=O)NC5COC(=O)C(NC(=O)c6cc(C7OC(CO)C(O)C(O)C7O)cc(O)c6O)COC(=O)C(NC(=O)c6cc(C7OC(CO)C(O)C(O)C7O)cc(O)c6O)COC5=O)c4)nn3)c3ccc(O)cc3)C(=O)N2C1C(=O)O (stereo not shown) [DGE-Amx]		greater antibacterial activity against the uropathogenic E. coli compared to non-pathogenic E. coli	attenuated by Ent, MGE, or DGE	attenuated by Ent, MGE, or DGE	micromolar concentrations	unaffected; also recorded: no effect; also recorded: not attenuated	enhanced antibacterial activity relative to unmodified Amx	specifically inhibited the growth of the uropathogenic E. coli	no effect
CC1(C)S[C@@H]2[C@H](NC(=O)[C@H](N)c3ccccc3)C(=O)N2[C@H]1C(=O)O [Amp, Ampicillin]	did not affect the viability of human cells significantly								
